Measured values published in patent US5679671A, “Amino acid derivative” (Eisai Co., Ltd., priority 1993, dated 1997).

Experiments:
[1] = biological target: T1, ACE (Rattus norvegicus, UniProt P47820); assay: ACE inhibition activity (Experiment E-1); assay type: biochemical; conditions: rat lung membrane fraction, pH 8.3
T1 construct: membrane fraction prepared from rat lung; from tissue; host or cells: rat lung, membrane fraction (method of Wu-Wong et al.)
T1 sequence (P47820 36-1313): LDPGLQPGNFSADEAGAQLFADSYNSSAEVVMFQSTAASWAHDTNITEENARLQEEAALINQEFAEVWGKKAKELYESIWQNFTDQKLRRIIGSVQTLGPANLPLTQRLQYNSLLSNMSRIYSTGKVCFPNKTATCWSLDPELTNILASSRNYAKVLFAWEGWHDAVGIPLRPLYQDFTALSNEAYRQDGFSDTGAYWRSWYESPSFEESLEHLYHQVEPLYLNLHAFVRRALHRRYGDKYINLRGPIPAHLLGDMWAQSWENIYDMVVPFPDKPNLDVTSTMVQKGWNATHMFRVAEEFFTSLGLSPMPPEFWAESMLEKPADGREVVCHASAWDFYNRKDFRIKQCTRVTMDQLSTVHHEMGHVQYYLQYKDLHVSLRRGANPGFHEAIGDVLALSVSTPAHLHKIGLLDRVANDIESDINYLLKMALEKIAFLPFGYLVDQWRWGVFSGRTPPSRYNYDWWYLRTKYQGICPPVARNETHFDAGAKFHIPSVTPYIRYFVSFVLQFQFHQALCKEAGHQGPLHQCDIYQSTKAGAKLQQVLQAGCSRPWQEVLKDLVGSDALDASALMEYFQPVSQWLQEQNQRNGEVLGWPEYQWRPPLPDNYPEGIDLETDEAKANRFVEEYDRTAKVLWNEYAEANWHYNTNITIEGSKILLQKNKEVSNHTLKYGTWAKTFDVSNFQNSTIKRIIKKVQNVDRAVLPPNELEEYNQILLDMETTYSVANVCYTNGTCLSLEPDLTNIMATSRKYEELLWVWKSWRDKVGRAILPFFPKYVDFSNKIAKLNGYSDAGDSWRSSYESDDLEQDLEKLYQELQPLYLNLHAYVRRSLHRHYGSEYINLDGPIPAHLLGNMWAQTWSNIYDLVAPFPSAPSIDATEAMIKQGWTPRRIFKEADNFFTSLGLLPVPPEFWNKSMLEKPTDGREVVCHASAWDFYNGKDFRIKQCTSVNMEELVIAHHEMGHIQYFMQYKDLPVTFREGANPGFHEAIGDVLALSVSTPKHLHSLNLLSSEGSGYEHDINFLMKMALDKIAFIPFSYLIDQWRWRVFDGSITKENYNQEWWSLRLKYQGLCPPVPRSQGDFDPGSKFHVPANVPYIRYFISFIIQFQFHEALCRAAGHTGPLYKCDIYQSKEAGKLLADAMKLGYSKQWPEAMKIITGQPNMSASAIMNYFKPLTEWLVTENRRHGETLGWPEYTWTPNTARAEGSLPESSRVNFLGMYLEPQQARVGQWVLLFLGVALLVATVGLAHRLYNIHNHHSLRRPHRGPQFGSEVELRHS
Method: As a source of the enzyme ACE, a membrane fraction prepared from rat lung in accordance with the method of Wu-Wong et al. (Characterization of Endthelin Converting Enzyme in Rat Lung., Jinshyum R. Wu-Wong, Gerald, P. Budzik, Edward M. Devine and Terry J. Opgenorth, Biochem. Biophys. Res. Commun., 1990, 171, 1291-1296.) was used. The ACE activity was determined with the use of a modification (modified to a borate buffer pH 8.3) of the method of Cushman and Cheung (Spectrophotometric Assay and Properties of the Angiotensin-Converting Enzyme of Rabbit Lung., Cushman D. W. and Cheung H. S., 1971, 20, 1637-1648.). Now the procedure will be briefly described.
(§1) In the presence of ACE, the hippurate liberated from hippuryl-histidyl-leucine (Hippuryl-His-Leu (PeptideInstitute Inc., Japan)) was extracted with ethyl acetate and then the absorbance was measured at a wavelength of 228 nm.
To determine the NEP inhibition activity and the ACE inhibition activity, the inhibitor was added to the assay systems of both enzyme activities as described above in such a manner as to give the final concentrations of 1, 3, 10, 30, 100, […] and 1000 nM and inhibition curves were prepared. Then the concentration at which 50% inhibition was achieved was taken as IC50.

[2] = system: 2K-1C-Goldblatt Hypertensive Rat; assay: Hypotensive effect on 2K-1C-Goldblatt hypertensive rat, oral (Experiment C-3); assay type: in vivo, male Sprague Dawley rats
Method: A silver clip with a slit of 0.25 mm in width was fitted into the left renal artery of each of male Sprague Dawley rats (aged 6 to 7 weeks) and, after three weeks, rats showing a systolic blood pressure of 180 mmHg or above were employed. One to several drops of a 1N aqueous solution of sodium hydroxide were dropped into purified water and each test compound was dissolved or emulsified therein to prepare it at a dose of 5 ml/kg, followed by orally administration. After keeping the rats in an incubator at 45° C. for 5 to 10 minutes, the systolic blood pressure was measured by the indirect method of tail artery plethysmography. As a comparative compound, [4S-[4α,7α(R*),12bβ]]-7-[(1-oxo-2-(S)-thio-3-phenyl-propyl)amino[-1,2,3,4,6,7,8,12b-octahydro-6-oxo-pyrido[2,1-a][2]benzazepine-4-carboxylic acid was used.

[3] = biological target: T1, ACE; assay: ACE inhibition activity using rat lung (Experiment C-2); assay type: biochemical; conditions: Table C-1; rat lung membrane fraction, borate buffer pH 8.3
Method: The ACE inhibition activity was determined by using a membrane fraction prepared from rat lung in accordance with the method of Wu-Wong et al. (Characterization of Endthelin Converting Enzyme in Rat Lung., Junshyum R. Wu-Wong, Gerald P. Budzik, Edward M. Devine and Terry J. Opgenorth, Biochem. Biophys. Res. Commun., 1990, 171, 1291-1296.).
The ACE activity was determined with the use of a modification (modified to a borate buffer, pH 8.3) of the method of Cushman and Cheung (Spectrophotometric Assay and Properties of the Angiotensin-Converting Enzyme of Rabbit Lung., Cushman D. W. and Cheung H. S., 1971, 20, 1637-1648.).
as §1
With respect to the ACE inhibition activity, the test compound was added to the reaction system as described above in such a manner as to give the final concentrations of 1, 3, 10, 30, 100, 300 and 1000 nM, an inhibition curve was prepared, and then the concentration at which 50% inhibition was achieved was taken as IC50. As a comparative compound, [4S-[4α,7α(R*),12bβ]]-7-[(1-oxo-2-(S)-thio-3-phenyl-propyl)amino]-1,2,3,4,6,7,8,12b-octahydro-6-oxopyrido-[2,1-a][2]benzazepine-4-carboxylic acid was used.

Row | SMILES | IC50 [1] [nM] | IC50 [3] [nM] | Decrease (%) in blood pressure after 1-3 hrs. ([2]; 1 mg/kg oral, after 2 hrs) [%] | Decrease (%) in blood pressure after 6 hrs. ([2]; 1 mg/kg oral) [%] | Decrease (%) in blood pressure after 6 hrs. ([2]; 3 mg/kg oral) [%] | further results
1 | O=C(N[C@H]1Cc2ccccc2[C@H]2CCC[C@@H](C(=O)O)N2C1=O)[C@@H](S)Cc1ccccc1 [Comp. cpd. E-1, [4S-[4α,7α(R*),12bβ]]-7-[(1-oxo-2-(S)-thio-3-phenyl-propyl)amino]-1,2,3,4,6,7,8,12b-octahydro-6-oxopyrido-[2,1-a][2]benzazepine-4-carboxylic acid, reference compound] | 9 | 9 | – | – | 12.9 | Decrease (%) in blood pressure after 1-3 hrs. ([2]; 3 mg/kg oral, after 1 hr): 15.4%; Decrease (%) in blood pressure after 1-3 hrs. ([2]; 10 mg/kg oral, after 1 hr): 14.2%; Decrease (%) in blood pressure after 6 hrs. ([2]; 10 mg/kg oral): 19.1%
2 | CC[C@H](C)[C@H](S)C(=O)N[C@H]1Cc2ccc(-c3ccccc3)cc2[C@H]2CCC[C@@H](C(=O)O)N2C1=O [Example C-14, [4S-[4α,7α(R*),12bβ]]-7-[[(2S,3S)-3-Methyl-1-oxo-2-thiopentyl]amino]-6-oxo-11-phenyl-1,2,3,4,6,7,8,12b-octahydropyrido[2,1-a][2]benzazepine-4-carboxylic acid] | 11 | 12.3 | – | 12.7 | 22.2 | Decrease (%) in blood pressure after 1-3 hrs. ([2]; 1 mg/kg oral, after 3 hrs): 13.4%; Decrease (%) in blood pressure after 1-3 hrs. ([2]; 3 mg/kg oral, after 3 hrs): 25.9%
3 | CC[C@H](C)[C@H](S)C(=O)NC1CCc2ccccc2N(CC(=O)O)C1=O (stereo partly drawn) [Example A-9, 1-Carboxymethyl-3-[(2S,3S)-2-mercapto-3-methylvarelylamino]-1H-[1]benzazepin-2-one] | – | 13 | 17.3 | 20.8 | – | –

Second part, led by results:

Row | IC50 [1] [nM] | IC50 [3] [nM] | SMILES | Decrease (%) in blood pressure after 1-3 hrs. ([2]; 1 mg/kg oral, after 2 hrs) [%] | Decrease (%) in blood pressure after 6 hrs. ([2]; 1 mg/kg oral) [%] | Decrease (%) in blood pressure after 6 hrs. ([2]; 3 mg/kg oral) [%] | further results
4 | 10 | – | CC(C)[C@H](S)C(=O)N[C@H]1Cc2ccc(-c3ccccc3)cc2[C@H]2CCC[C@@H](C(=O)O)N2C1=O [Example E-10, [4S-[4α,7α(R*),12bβ]]-7-[(S)-2-Mercapto-3-methylbutyrylamino]-6-oxo-11-phenyl-1,2,3,4,6,7,8,12b-octahydropyrido[2,1-a][2]benzazepine-4-carboxylic acid] | – | – | – | –
5 | – | 5.3 | CC[C@H](C)[C@H](S)C(=O)N[C@H]1CCC[C@H]2SC[C@@H](C(=O)O)N2C1=O [Example C-8, [3R-[3α,6α,(S*),9aβ]]-6-[[(2S,3S)-3-methyl-1-oxo-2-thiopentyl]amino]-octahydro-5-oxothiazol[3,2-a]-azepine-3-carboxylic acid] | 28.4 | 25.3 | – | –
6 | – | 11 | CC[C@H](C)[C@H](S)C(=O)N[C@H]1CCc2ccccc2N(CC(=O)O)C1=O [Example A-11, (S)-3-[(2S,3S)-2-Mercapto-3-methylvarelylamino]-1-carboxymethyl-2,3,4,5-tetrahydro-1H-[1]benzazepin-2-one] | – | – | – | –
